For seven compounds, TGI results are on record in PubChem BioAssay (NCI).

Test systems include CAKI-1 renal; BT-549 breast; NCI-H23 lung; SNB-75 CNS; OVCAR-8 ovarian; DU-145 prostate; SK-OV-3 ovarian; OVCAR-3 ovarian; K-562 leukemia; RXF 393 renal; SF-268 CNS; OVCAR-5 ovarian; SK-MEL-28 melanoma; ACHN renal; SK-MEL-5 melanoma; TK-10 renal; HL-60(TB) leukemia; SF-295 CNS; SNB-19 CNS.
What all share (test): NCI-60 cell line screen, 48 h

Molecules are shown by their SMILES.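 Interpolation was linear, between the two tested concentrations surrounding the appropriate level; five concentrations were tested over 48 hours in 96-well plates. TGI: total growth inhibition.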

Turning to `COC(=O)/C=C(/C(=O)OC)c1cc2ccc3c([nH]c4ccccc43)c(C)c-2c1`, the TGI with CAKI-1 renal is more than 100 µM; in the assay with BT-549 breast, 23.1 µM; in the assay with NCI-H23 lung, 24.7 µM; with SNB-75 CNS it was 59.2 µM; with OVCAR-8 ovarian it was 25.2 µM; with DU-145 prostate it was 42.2 µM. The TGI is 36.9 µM with SK-OV-3 ovarian; 12 µM in the assay with OVCAR-3 ovarian; 7.09 µM in the assay on K-562 leukemia; more than 100 µM in the assay with RXF 393 renal; 21.4 µM in the assay with SF-268 CNS; 13.6 µM in the assay with OVCAR-5 ovarian. The TGI with SK-MEL-28 melanoma is 30.2 µM; in the assay with ACHN renal, more than 100 µM; in the assay on SK-MEL-5 melanoma, 9.18 µM; with TK-10 renal it was more than 100 µM; in the assay on HL-60(TB) leukemia, 12.5 µM; with SF-295 CNS it was 16.4 µM. Moreover, the TGI in the assay with SNB-19 CNS stood at 23.2 µM.

In the case of `CO/C(=C/C(=O)C(Cl)(Cl)Cl)CC/C(=C\C(=O)C(Cl)(Cl)Cl)OC`, the TGI in the assay with CAKI-1 renal was 72.2 µM; in the assay on BT-549 breast, 83.2 µM; with NCI-H23 lung, 62.7 µM; with SNB-75 CNS, more than 100 µM; in the assay with OVCAR-8 ovarian, 56 µM; with DU-145 prostate, 56.7 µM. Also, the TGI was 87.3 µM in the assay on SK-OV-3 ovarian; 67.7 µM in the assay with OVCAR-3 ovarian; more than 100 µM in the assay with K-562 leukemia; 34.7 µM in the assay with RXF 393 renal; more than 100 µM with SF-268 CNS; more than 100 µM with OVCAR-5 ovarian. Further, the TGI in the assay with SK-MEL-28 melanoma was 80.5 µM; in the assay on ACHN renal, 65.2 µM; in the assay with SK-MEL-5 melanoma, more than 100 µM; with TK-10 renal it was 73.2 µM; in the assay with HL-60(TB) leukemia, 80.5 µM; in the assay on SF-295 CNS, more than 100 µM. In the assay with SNB-19 CNS, this compound showed a TGI of more than 100 µM.

As for `O=C(O)CC1NC(/C(=C/c2ccccc2O)NC(=O)c2ccccc2)OC1=O` (stereo not drawn), the TGI is more than 100 µM with CAKI-1 renal; 52 µM with BT-549 breast; more than 100 µM in the assay with NCI-H23 lung; more than 63.6 µM in the assay with SNB-75 CNS; more than 87.8 µM in the assay with OVCAR-8 ovarian; more than 100 µM in the assay with DU-145 prostate. Besides, the TGI in the assay with SK-OV-3 ovarian was more than 100 µM; in the assay on OVCAR-3 ovarian, more than 61.2 µM; in the assay on K-562 leukemia it was more than 100 µM; with RXF 393 renal, 99.2 µM; in the assay on SF-268 CNS it was more than 45.1 µM; with OVCAR-5 ovarian it was more than 100 µM. In addition, the TGI with SK-MEL-28 melanoma was more than 100 µM; with ACHN renal, more than 51 µM; in the assay with SK-MEL-5 melanoma, more than 100 µM; in the assay on TK-10 renal, more than 100 µM; in the assay with HL-60(TB) leukemia it was more than 100 µM; in the assay with SF-295 CNS, more than 95.7 µM. In the assay with SNB-19 CNS, this compound had a TGI of 49.5 µM.

As to `Cc1nc2c(cc1C(=O)N/N=C/c1ccc([N+](=O)[O-])cc1)c(=O)n(C)c(=O)n2C`, the TGI in the assay with CAKI-1 renal, in the assay with BT-549 breast, in the assay on NCI-H23 lung, in the assay on SNB-75 CNS, in the assay with OVCAR-8 ovarian and with DU-145 prostate was more than 100 µM throughout. The TGI was more than 100 µM in the assay on SK-OV-3 ovarian; more than 100 µM in the assay on OVCAR-3 ovarian; more than 100 µM in the assay with K-562 leukemia; 65 µM in the assay on RXF 393 renal; more than 100 µM with SF-268 CNS; more than 100 µM in the assay on OVCAR-5 ovarian. Also, the TGI in the assay with SK-MEL-28 melanoma, with ACHN renal, in the assay on SK-MEL-5 melanoma, in the assay with TK-10 renal, in the assay with HL-60(TB) leukemia and with SF-295 CNS was more than 100 µM in each case. Moreover, the TGI in the assay on SNB-19 CNS stood at 56.7 µM.

For `O=c1c(C2=NCCC2)c(-c2ccc[nH]2)[nH]n1-c1ccccc1`, the TGI in the assay with CAKI-1 renal, with BT-549 breast, with NCI-H23 lung, in the assay with SNB-75 CNS, in the assay on OVCAR-8 ovarian and in the assay with DU-145 prostate was more than 100 µM throughout. Moreover, the TGI in the assay with SK-OV-3 ovarian, in the assay with OVCAR-3 ovarian, in the assay on K-562 leukemia, with RXF 393 renal, in the assay on SF-268 CNS and in the assay with OVCAR-5 ovarian was more than 100 µM throughout. In addition, the TGI in the assay on SK-MEL-28 melanoma, in the assay on ACHN renal, in the assay on SK-MEL-5 melanoma, in the assay with TK-10 renal, with HL-60(TB) leukemia and in the assay on SF-295 CNS was more than 100 µM throughout. In the assay with SNB-19 CNS, this compound displayed a TGI of more than 100 µM.

On to `Cc1c(-c2ccccc2)c(C#N)c2nnn(C3CCCCC3)c(=O)n12`, for which the TGI is 47.1 µM in the assay on CAKI-1 renal; more than 100 µM in the assay on BT-549 breast; more than 100 µM in the assay on NCI-H23 lung; 68.8 µM in the assay with SNB-75 CNS; more than 100 µM in the assay with OVCAR-8 ovarian; more than 100 µM in the assay with DU-145 prostate. Besides, the TGI is more than 100 µM with SK-OV-3 ovarian; more than 100 µM in the assay on OVCAR-3 ovarian; more than 100 µM in the assay on K-562 leukemia; 71.7 µM in the assay with RXF 393 renal; more than 100 µM in the assay with SF-268 CNS; more than 100 µM with OVCAR-5 ovarian. Moreover, the TGI with SK-MEL-28 melanoma, in the assay with ACHN renal, in the assay with SK-MEL-5 melanoma, in the assay on TK-10 renal, in the assay on HL-60(TB) leukemia and with SF-295 CNS was more than 100 µM each time. The TGI in the assay with SNB-19 CNS is more than 100 µM.

As to `COc1cccc(CCNc2c(C#N)c3nc4ccccc4n3c3ccccc23)c1`, the TGI with CAKI-1 renal was more than 100 µM; in the assay on BT-549 breast it was more than 100 µM; in the assay on NCI-H23 lung, more than 30.5 µM; with SNB-75 CNS it was more than 58 µM; in the assay on OVCAR-8 ovarian it was more than 100 µM; with DU-145 prostate it was more than 41.1 µM. The TGI with SK-OV-3 ovarian, with OVCAR-3 ovarian, with K-562 leukemia, in the assay on RXF 393 renal, in the assay on SF-268 CNS and with OVCAR-5 ovarian was more than 100 µM in each case. The TGI in the assay with SK-MEL-28 melanoma is more than 100 µM; in the assay on ACHN renal, more than 100 µM; in the assay on SK-MEL-5 melanoma, 0.872 µM; in the assay on TK-10 renal, more than 100 µM; in the assay with HL-60(TB) leukemia it was more than 100 µM; in the assay on SF-295 CNS, more than 100 µM. In the assay on SNB-19 CNS, this compound returned a TGI of more than 86 µM.
